Patent EP0676201B1, “Use of a riminophenazine for treating MDR resistance” (priority 1994, dated 1995)
≈ marks a conversion by molar mass, not a printed value. Read-outs that look alike come from different tables or passages of the source.

System: K562/MMB
Assay: MTT assay, 7-day exposure to riminophenazines alone or with fixed doxorubicin or vinblastine (Example 4)
Type: cell-based
Settings: Homo sapiens, K562, 168 h
[1] = in the presence of doxorubicin (12 ng/ml), read-out: IC 50 of riminophenazine, Doxorubicin
[2] = in the presence of vinblastine (3 ng/ml), read-out: IC 50 of riminophenazine, Vinblastine
[3] = riminophenazine alone, mean of 2 experiments, read-out: IC 50 of riminophenazine, None

Description: A third cell line (562/MMB) used was a MDR leukemia cell line selected in vitro by progressive exposure to increasing concentrations of vinblastine in order to increase P-glycoprotein expression. […] This cell line expresses high levels of P-glycoprotein as determined by flowcytometry using the monoclonal antibody (MRK 16) against this molecule.
The effects were examined of a 7-day exposure of selected compounds on the sensitivity of the cell line (K562/MMB) to the standard chemotherapeutic agents doxorubicin and vinblastine, using the MTT assay.
The cells were seeded at 1 x 10^4 cells per well in 96 well microlitre plates in a volume of 200 µl of RPMI 1640 medium containing 10 % fetal calf serum and incubated with doxorubicin (12.5 ng/ml) or vinblastine (3 ng/ml). The amounts of MDR modulators used were 0.03, 0.06, 0.125, 0.5, 1.0 and 2.0 µg/ml.
After incubation at 37 °C for 7 days, 20 µl MTT (i.e. 3-[4,5-dimethylthiazol-2-yl]2,5-diphenyl-tetrazolium bromide) at 5 mg/ml was added to each well and the plates incubated for a further 4 hours. The cells were washed with phosphate buffered saline and the intracellular formazan crystals solubilized with dimethylsulphoxide, and the absorbency measured spectrophotometrically at a test wavelength of 540 nm and a reference wavelength of 620 nm.

Row | IC50 [1] [µg/mL] | IC50 [2] [µg/mL] | IC50 [3] [µg/mL] | SMILES
1 | 0.21 | 0.178 | 0.316 (≈ 0.563 µM) | COc1ccc(Nc2cc3nc4ccccc4n(-c4ccc(OC)cc4)c-3cc2=NC2CC(C)(C)NC(C)(C)C2)cc1 [Compound B4174, N,5-bis(4-methoxyphenyl)-3,5-dihydro-3-[(2',2',6',6'-tetramethyl-4-piperidyl)-imino]-2-phenazinamine]
2 | 0.269 | 0.051 | 0.351 (≈ 0.55 µM) | CC1(C)CC(N=c2cc3n(-c4ccc(C(F)(F)F)cc4)c4ccccc4nc-3cc2Nc2ccc(C(F)(F)F)cc2)CC(C)(C)N1 [Compound B4103, N,5-bis(4-trifluoromethylphenyl)-3,5-dihydro-3[(2',2',6',6'-tetramethyl-4-piperidyl)imino]-2-phenazinamine]
3 | 0.227 | < 0.05 | 0.34 (≈ 0.481 µM) | CC1(C)CC(N=c2cc3n(-c4ccc(Cl)c(C(F)(F)F)c4)c4ccccc4nc-3cc2Nc2ccc(Cl)c(C(F)(F)F)c2)CC(C)(C)N1 [Compound B4163, N,5-bis[(3-trifluoromethyl)-4-chlorophenyl]-3,5-dihydro-3-[(2',2',6',6'-tetramethylpiperidyl)-imino]-2-phenazinamie]
4 | 0.155 | 0.058 | 0.272 (≈ 0.464 µM) | CC(C)c1ccc(Nc2cc3nc4ccccc4n(-c4ccc(C(C)C)cc4)c-3cc2=NC2CC(C)(C)NC(C)(C)C2)cc1 [Compound B4158, N,5-bis(4-isopropylphenyl)-3,5-dihydro-3-[(2',2',6',6'-tetramethyl-4-piperidyl)-imino]-2-phenazinamine]

The next lines start with the molecule.

Row | SMILES | IC50 [1] [µg/mL] | IC50 [2] [µg/mL] | IC50 [3] [µg/mL]
5 | CC1(C)CC(N=c2cc3n(-c4ccc(Cl)cc4Cl)c4ccccc4nc-3cc2Nc2ccc(Cl)cc2Cl)CC(C)(C)N1 [Compound B4128] | 0.215 | 0.059 | 0.383 (≈ 0.599 µM)
6 | CC(C)c1ccc(Nc2cc3nc4cc(Cl)ccc4n(-c4ccc(C(C)C)cc4)c-3cc2=NC2CC(C)(C)NC(C)(C)C2)cc1 [Compound B4159, N,5-bis(4-isopropylphenyl)-8-chloro-3,5-dihydro-3-[(2',2',6',6'-tetramethyl-4-piperidyl)-imino]-2-phenazinamine] | 0.514 | 0.13 | 0.912 (≈ 1.47 µM)
7 | CC1(C)CC(N=c2cc3n(-c4ccc(Cl)cc4)c4ccc(Cl)cc4nc-3cc2Nc2ccc(Cl)cc2)CC(C)(C)N1 [Compound B4090] | 0.139 | < 0.05 | 0.197 (≈ 0.326 µM)
8 | CC1(C)CC(N=c2cc3n(-c4cccc(C(F)(F)F)c4)c4ccccc4nc-3cc2Nc2cccc(C(F)(F)F)c2)CC(C)(C)N1 [Compound B4126, N,5-bis(3-trifluoromethyl-4-phenyl)-3,5-dihydro-3-[(2',2',6',6'-tetramethyl-4-piperidyl)-imino]-2-phenazinamine] | 0.246 | 0.071 | 0.316 (≈ 0.496 µM)
9 | CC1(C)CC(N=c2cc3n(-c4ccc(Cl)c(Cl)c4)c4ccccc4nc-3cc2Nc2ccc(Cl)c(Cl)c2)CC(C)(C)N1 [Compound B4100] | 0.278 | 0.095 | 0.335 (≈ 0.524 µM)
10 | CC1(C)CC(N=c2cc3n(-c4cc(Cl)cc(Cl)c4)c4ccccc4nc-3cc2Nc2cc(Cl)cc(Cl)c2)CC(C)(C)N1 [Compound B4121] | 0.722 | – | 2.25 (≈ 3.52 µM)
11 | Cc1ccc(Nc2cc3nc4ccccc4n(-c4ccc(C)cc4)c-3cc2=NC2CCNCC2)cc1 [Compound B4070, N,5-bis(4-methylphenyl)-3,5-dihydro-3-[(4-piperidyl)imino]-2-phenazinamine] | 0.193 | 0.054 | 0.159 (≈ 0.336 µM)
12 | CCN(CC)CCCN=c1cc2n(-c3ccc(Cl)c(Cl)c3)c3ccccc3nc-2cc1Nc1ccc(Cl)c(Cl)c1 [Compound B4154] | 0.296 | 0.118 | 0.353 (≈ 0.575 µM)
13 | CC1(C)CC(N=c2cc3n(-c4ccccc4)c4ccccc4nc-3cc2Nc2ccccc2)CC(C)(C)N1 [Compound B3962, N,5-bis(phenyl)-3,5-dihydro-3-[(2',2',6',6'-tetramethyl-4-piperidyl)imino]-2-phenazinamine] | 0.159 | 0.07 | 0.285 (≈ 0.568 µM)
